From PubChem BioAssay AID1963978 (Molecular Pharmacology Branch, DTP, NCI, 2024)

System: 616215-338-R-J1-PDC spheroids with HUVEC/MSC, viability
Test: Anticancer human tumor 616215-338-R-J1-PDC patient-derived colon adenocarcinoma cell line growth inhibition [PI3K]
Details: for IC50: curve of first compound; for viability, T/C: stronger effect = lower value; active = viability on the fitted dose curve at most 10% of control; inactive = the rest
Summary of the method: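 Complex 3D spheroids (cancer cells + endothelial HUVEC + mesenchymal stem cells); drug pairs of targeted agent x inavolisib/alpelisib/duvelisib/copanlisib; half-log series from ~Cmax, max 10 microM if Cmax unknown; endpoint viability.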

[1] = second compound 0.0316 µM, first compound 0.000316 µM
[2] = second compound 0.0316 µM, first compound 0.001 µM
[3] = second compound 0.0316 µM, first compound 0.00316 µM
[4] = second compound 0.0316 µM, first compound 0.01 µM
[5] = second compound 0.0316 µM, first compound 0.0316 µM
[6] = second compound 0.0316 µM, first compound 0.1 µM
[7] = second compound 0.1 µM, first compound 0.000316 µM
[8] = second compound 0.1 µM, first compound 0.001 µM
[9] = second compound 0.1 µM, first compound 0.00316 µM
[10] = second compound 0.1 µM, first compound 0.01 µM
[11] = second compound 0.1 µM, first compound 0.0316 µM
[12] = second compound 0.1 µM, first compound 0.1 µM
[13] = second compound 0.316 µM, first compound 0.000316 µM
[14] = second compound 0.316 µM, first compound 0.001 µM
[15] = second compound 0.316 µM, first compound 0.00316 µM
[16] = second compound 0.316 µM, first compound 0.01 µM
[17] = second compound 0.316 µM, first compound 0.0316 µM
[18] = second compound 0.316 µM, first compound 0.1 µM
[19] = second compound 1 µM, first compound 0.000316 µM
[20] = second compound 1 µM, first compound 0.001 µM
[21] = second compound 1 µM, first compound 0.00316 µM
[22] = second compound 1 µM, first compound 0.01 µM
[23] = second compound 1 µM, first compound 0.0316 µM
[24] = second compound 1 µM, first compound 0.1 µM
[25] = second compound 3.16 µM, first compound 0.000316 µM
[26] = second compound 3.16 µM, first compound 0.001 µM
[27] = second compound 3.16 µM, first compound 0.00316 µM
[28] = second compound 3.16 µM, first compound 0.01 µM
[29] = second compound 3.16 µM, first compound 0.0316 µM
[30] = second compound 3.16 µM, first compound 0.1 µM
[31] = second compound 10 µM, first compound 0.000316 µM
[32] = second compound 10 µM, first compound 0.001 µM
[33] = second compound 10 µM, first compound 0.00316 µM
[34] = second compound 10 µM, first compound 0.01 µM
[35] = second compound 10 µM, first compound 0.0316 µM
[36] = second compound 10 µM, first compound 0.1 µM
[37] = second compound 0.0316 µM, first compound 0.316 µM
[38] = second compound 0.0316 µM, first compound 1 µM
[39] = second compound 0.0316 µM, first compound 3.16 µM
[40] = second compound 0.0316 µM, first compound 10 µM
[41] = second compound 0.1 µM, first compound 0.316 µM
[42] = second compound 0.1 µM, first compound 1 µM
[43] = second compound 0.1 µM, first compound 3.16 µM
[44] = second compound 0.1 µM, first compound 10 µM
[45] = second compound 0.316 µM, first compound 0.316 µM
[46] = second compound 0.316 µM, first compound 1 µM
[47] = second compound 0.316 µM, first compound 3.16 µM
[48] = second compound 0.316 µM, first compound 10 µM
[49] = second compound 1 µM, first compound 0.316 µM
[50] = second compound 1 µM, first compound 1 µM
[51] = second compound 1 µM, first compound 3.16 µM
[52] = second compound 1 µM, first compound 10 µM
[53] = second compound 3.16 µM, first compound 0.316 µM
[54] = second compound 3.16 µM, first compound 1 µM
[55] = second compound 3.16 µM, first compound 3.16 µM
[56] = second compound 3.16 µM, first compound 10 µM
[57] = second compound 10 µM, first compound 0.316 µM
[58] = second compound 10 µM, first compound 1 µM
[59] = second compound 10 µM, first compound 3.16 µM
[60] = second compound 10 µM, first compound 10 µM
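Note: spheroids exposed to agents for seven days before the viability read.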

CC(=O)c1c(C)c2cnc(Nc3ccc(N4CCNCC4)cn3)nc2n(C2CCCC2)c1=O + Cc1nc(NC(=O)N2CCCC2C(N)=O)sc1-c1ccnc(C(C)(C)C(F)(F)F)c1
> 0.1 µM: IC50 (second compound 0.0316 µM) | IC50 (second compound 0.1 µM) | IC50 (second compound 0.316 µM) | IC50 (second compound 1 µM) | IC50 (second compound 3.16 µM) | IC50 (second compound 10 µM)
inactive: viability, T/C [1] 97.4% | viability, T/C [2] 96.8% | viability, T/C [3] 102% | viability, T/C [4] 110% | viability, T/C [5] 98% | viability, T/C [6] 113% | viability, T/C [7] 102% | viability, T/C [8] 95.7% | viability, T/C [9] 105% | viability, T/C [10] 87.9% | viability, T/C [11] 104% | viability, T/C [12] 111% | viability, T/C [13] 109% | viability, T/C [14] 97.3% | viability, T/C [15] 88.1% | viability, T/C [16] 99.9% | viability, T/C [17] 104% | viability, T/C [18] 108% | viability, T/C [19] 111% | viability, T/C [20] 108% | viability, T/C [21] 97.2% | viability, T/C [22] 100% | viability, T/C [23] 103% | viability, T/C [24] 91.7% | viability, T/C [25] 91.8% | viability, T/C [26] 95.6% | viability, T/C [27] 90.5% | viability, T/C [28] 98.4% | viability, T/C [29] 105% | viability, T/C [30] 101% | viability, T/C [31] 97.5% | viability, T/C [32] 93% | viability, T/C [33] 90.5% | viability, T/C [34] 93% | viability, T/C [35] 91% | viability, T/C [36] 97%

CC(C)n1nc(-c2ccc3oc(N)nc3c2)c2c(N)ncnc21 + Cc1nc(NC(=O)N2CCCC2C(N)=O)sc1-c1ccnc(C(C)(C)C(F)(F)F)c1
0.0532 µM: IC50 (second compound 10 µM)
> 0.1 µM: IC50 (second compound 0.0316 µM) | IC50 (second compound 0.1 µM) | IC50 (second compound 0.316 µM) | IC50 (second compound 1 µM) | IC50 (second compound 3.16 µM)
inactive: viability, T/C [1] 100% | viability, T/C [2] 88.7% | viability, T/C [3] 93.9% | viability, T/C [4] 97.2% | viability, T/C [5] 105% | viability, T/C [6] 93.2% | viability, T/C [7] 98.5% | viability, T/C [8] 106% | viability, T/C [9] 96.8% | viability, T/C [10] 90.8% | viability, T/C [11] 114% | viability, T/C [12] 87.1% | viability, T/C [13] 91.2% | viability, T/C [14] 91.2% | viability, T/C [15] 91.4% | viability, T/C [16] 96.2% | viability, T/C [17] 111% | viability, T/C [18] 82.1% | viability, T/C [19] 102% | viability, T/C [20] 100% | viability, T/C [21] 102% | viability, T/C [22] 99.5% | viability, T/C [23] 106% | viability, T/C [24] 79.1% | viability, T/C [25] 99.7% | viability, T/C [26] 102% | viability, T/C [27] 91% | viability, T/C [28] 95.4% | viability, T/C [29] 83.8% | viability, T/C [30] 56.7% | viability, T/C [31] 94.4% | viability, T/C [32] 85.9% | viability, T/C [33] 86.2% | viability, T/C [34] 80.2% | viability, T/C [35] 56.7% | viability, T/C [36] 41.4%

CC1(C)CCC(CN2CCN(c3ccc(C(=O)NS(=O)(=O)c4ccc(NCC5CCOCC5)c([N+](=O)[O-])c4)c(Oc4cnc5[nH]ccc5c4)c3)CC2)=C(c2ccc(Cl)cc2)C1 + Cc1nc(NC(=O)N2CCCC2C(N)=O)sc1-c1ccnc(C(C)(C)C(F)(F)F)c1
5.37 µM: IC50 (second compound 3.16 µM)
5.11 µM: IC50 (second compound 1 µM)
5.22 µM: IC50 (second compound 0.0316 µM)
4.47 µM: IC50 (second compound 10 µM)
5 µM: IC50 (second compound 0.1 µM)
active: viability, T/C [40] 2.58% | viability, T/C [44] 1.97% | viability, T/C [48] 2.29% | viability, T/C [52] 0.61% | viability, T/C [56] 0.6% | viability, T/C [60] 0.39%
inactive: viability, T/C [5] 95.6% | viability, T/C [6] 98.9% | viability, T/C [37] 108% | viability, T/C [38] 102% | viability, T/C [39] 86.4% | viability, T/C [11] 97.4% | viability, T/C [12] 92.3% | viability, T/C [41] 95.8% | viability, T/C [42] 104% | viability, T/C [43] 81.5% | viability, T/C [17] 98.5% | viability, T/C [18] 97.1% | viability, T/C [45] 90.5% | viability, T/C [46] 97.7% | viability, T/C [47] 81% | viability, T/C [23] 103% | viability, T/C [24] 92.3% | viability, T/C [49] 102% | viability, T/C [50] 93% | viability, T/C [51] 85.3% | viability, T/C [29] 95.6% | viability, T/C [30] 99.4% | viability, T/C [53] 101% | viability, T/C [54] 97.9% | viability, T/C [55] 91.9% | viability, T/C [35] 92.8% | viability, T/C [36] 99.9% | viability, T/C [57] 94.8% | viability, T/C [58] 87.1% | viability, T/C [59] 72.4%
4.98 µM: IC50 (second compound 0.316 µM)

CCCS(=O)(=O)Nc1ccc(F)c(C(=O)c2c[nH]c3ncc(-c4ccc(Cl)cc4)cc23)c1F + Cc1nc(NC(=O)N2CCCC2C(N)=O)sc1-c1ccnc(C(C)(C)C(F)(F)F)c1
4.02 µM: IC50 (second compound 0.0316 µM)
inactive: viability, T/C [5] 108% | viability, T/C [6] 94% | viability, T/C [37] 94.7% | viability, T/C [38] 81.2% | viability, T/C [39] 66.6% | viability, T/C [11] 90.6% | viability, T/C [12] 92.5% | viability, T/C [41] 84.8% | viability, T/C [42] 91.2% | viability, T/C [43] 66.2% | viability, T/C [17] 95.3% | viability, T/C [18] 90.1% | viability, T/C [45] 90.3% | viability, T/C [46] 85% | viability, T/C [47] 65.5% | viability, T/C [23] 95.9% | viability, T/C [24] 92.2% | viability, T/C [49] 93.5% | viability, T/C [50] 86.1% | viability, T/C [51] 69.9% | viability, T/C [29] 96.8% | viability, T/C [30] 86.8% | viability, T/C [53] 91.9% | viability, T/C [54] 82.3% | viability, T/C [55] 57% | viability, T/C [35] 91.7% | viability, T/C [36] 86.4% | viability, T/C [57] 87.4% | viability, T/C [58] 87.8% | viability, T/C [59] 48%
3.71 µM: IC50 (second compound 3.16 µM)
4.28 µM: IC50 (second compound 0.1 µM)
active: viability, T/C [40] 3.55% | viability, T/C [44] 4.03% | viability, T/C [48] 5.89% | viability, T/C [52] 6.45% | viability, T/C [56] 5.97% | viability, T/C [60] 4.82%
4.25 µM: IC50 (second compound 0.316 µM)
2.99 µM: IC50 (second compound 10 µM)
4.51 µM: IC50 (second compound 1 µM)

CNC(=O)c1ccc(N2C(=S)N(c3ccc(C#N)c(C(F)(F)F)c3)C(=O)C2(C)C)cc1F + Cc1nc(NC(=O)N2CCCC2C(N)=O)sc1-c1ccnc(C(C)(C)C(F)(F)F)c1
> 10 µM: IC50 (second compound 0.0316 µM) | IC50 (second compound 0.1 µM) | IC50 (second compound 0.316 µM) | IC50 (second compound 1 µM) | IC50 (second compound 3.16 µM) | IC50 (second compound 10 µM)
inactive: viability, T/C [5] 97.6% | viability, T/C [6] 95.1% | viability, T/C [37] 102% | viability, T/C [38] 96.5% | viability, T/C [39] 95.6% | viability, T/C [40] 93% | viability, T/C [11] 116% | viability, T/C [12] 86% | viability, T/C [41] 94.7% | viability, T/C [42] 99% | viability, T/C [43] 91.9% | viability, T/C [44] 103% | viability, T/C [17] 94% | viability, T/C [18] 99.9% | viability, T/C [45] 109% | viability, T/C [46] 97.9% | viability, T/C [47] 94.4% | viability, T/C [48] 93.1% | viability, T/C [23] 101% | viability, T/C [24] 96.4% | viability, T/C [49] 104% | viability, T/C [50] 97.4% | viability, T/C [51] 101% | viability, T/C [52] 104% | viability, T/C [29] 101% | viability, T/C [30] 93.8% | viability, T/C [53] 91.3% | viability, T/C [54] 90% | viability, T/C [55] 93.5% | viability, T/C [56] 90.6% | viability, T/C [35] 90.6% | viability, T/C [36] 93.3% | viability, T/C [57] 98.4% | viability, T/C [58] 98.9% | viability, T/C [59] 99.4% | viability, T/C [60] 54.6%
